According to patent US10538567B2, “Compounds as peptidic trigonal GLP1/glucagon/GIP receptor agonists” (priority 2016, dated 2020):
pEC50: −log10 of the molar value. Numbered stars: 1 amine (or outer) side, 2 acyl side, 3 side chain; on linkers, the order of the positions; unused ones are H or OH. Square brackets hold non-standard residues; d marks the D form. Side chains are listed from the residue outwards. Peptide text beside a SMILES is read from it. * marks the point of attachment. Adipoyl(4R-palmitoylamino) = CCCCCCCCCCCCCCCC(=O)N[C@H](CCC(=O)*)CC(=O)O; γGlu = O=C(O)[C@H](CCC(=O)[*:2])N[*:1]; AEEA = NCCOCCOCC(=O)O; Aib = CC(C)(N)C(=O)O

Legend:
[1] = Thioflavin T (ThT) assay for physical stability (fibrillation); assay type: physicochemical; settings: 3 mg/ml, 100 mM acetate pH 4.5 with m-cresol, 37° C. shaking
From the text: Low physical stability of a peptide solution may lead to amyloid fibril formation, which is observed as well-ordered, thread-like macromolecular structures in the sample, which eventually may lead to gel formation. Thioflavin T (ThT) is widely used to visualize and quantify the presence of misfolded protein aggregates. [Biancalana et al. (2010) Biochimica et Biophysica Acta. 1804 (7): 1405-1412]. […] Enzymol. 309, 274-284]. The time course for fibril formation often follows the characteristic shape of a sigmoidal curve and can be separated into three regions: a lag phase, a fast growth phase, and a plateau phase.
The typical fibril formation process starts with the lag phase in which the amount of partially folded peptide turned into fibrils is not significant enough to be detected. The lag-time corresponds to the time the critical mass of the nucleus is built. Afterwards, a drastic elongation phase follows and fibril concentration increases rapidly.
Investigations were carried out to determine fibrillation tendencies under stress conditions by shaking at 37° C. within Fluoroskan Ascent FL.
For the tests in Fluoroskan Ascent FL, 200 μL sample were placed into a 96 well mictrotiter plate PS, flat bottom, Greiner Fluotrac No. 655076. Plates were sealed with Scotch Tape (Quiagen). Samples were stressed by continuous cycles of 10 s shaking at 960 rpm and 50 s rest period at 37° C. The kinetic was monitored by measuring fluorescence intensity every 20 minutes.
Peptides were diluted in a buffer system to a final concentration of 3 mg/ml. 20 μL of a 10.1 mM ThT solution in H2O were added to 2 mL of peptide solution to receive a final concentration of 100 μM ThT. For each sample eight replicates were tested.
Tht buffer system A) 100 mM Acetate pH 4.5 including m-cresol (100 mM Natriumacetat trihydrat, pH adjustment using 2N CH3COOH, 2.7 mg/mL m-cresol) Tht buffer system B) 100 mM citrate buffer pH 6.0
Lag time in hours in Thioflavin T (ThT) assay of peptide samples was determined in ThT buffer system A as described in Methods.

[2] = target: T1, human GIP receptor (Homo sapiens, UniProt P48546); experiment: cAMP response (HTRF) of HEK-293 cells stably expressing human GIP receptor; assay type: cell-based; settings: Table 8; read-out: EC50 hGIP R
T1 construct: expressed in transfected cells; host or cells: HEK-293
T1 sequence (P48546 22-466): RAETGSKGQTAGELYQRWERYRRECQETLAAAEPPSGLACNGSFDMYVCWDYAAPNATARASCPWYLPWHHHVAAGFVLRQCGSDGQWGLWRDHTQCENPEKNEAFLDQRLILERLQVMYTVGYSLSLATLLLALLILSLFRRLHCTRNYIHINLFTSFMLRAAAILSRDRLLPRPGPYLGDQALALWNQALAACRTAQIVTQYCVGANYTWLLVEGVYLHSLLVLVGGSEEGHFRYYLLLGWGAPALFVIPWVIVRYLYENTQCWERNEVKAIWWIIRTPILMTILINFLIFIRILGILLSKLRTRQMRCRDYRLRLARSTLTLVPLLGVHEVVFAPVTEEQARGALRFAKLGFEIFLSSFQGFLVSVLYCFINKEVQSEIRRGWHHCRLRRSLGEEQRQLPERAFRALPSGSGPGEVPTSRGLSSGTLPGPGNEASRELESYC
Description: Agonism of compounds for the receptors was determined by functional assays measuring cAMP response of HEK-293 cell lines stably expressing human GLP-1, GIP or glucagon receptor.
cAMP content of cells was determined using a kit from Cisbio Corp. (cat. no. 62AM4PEJ) based on HTRF (Homogenous Time Resolved Fluorescence). For preparation, cells were split into T175 culture flasks and grown overnight to near confluency in medium (DMEM/10% FBS). Medium was then removed and cells washed with PBS lacking calcium and magnesium, followed by proteinase treatment with accutase (Sigma-Aldrich cat. no. A6964). Detached cells were washed and resuspended in assay buffer (1×HBSS; 20 mM HEPES, 0.1% BSA, 2 mM IBMX) and cellular density determined. They were then diluted to 400000 cells/ml and 25 μl-aliquots dispensed into the wells of 96-well plates. For measurement, 25 μl of test compound in assay buffer was added to the wells, followed by incubation for 30 minutes at room temperature. After addition of HTRF reagents diluted in lysis buffer (kit components), the plates were incubated for 1 hr, followed by measurement of the fluorescence ratio at 665/616 nm. In vitro potency of agonists was quantified by determining the concentrations that caused 50% activation of maximal response (EC50).
Potencies of peptidic compounds at the GLP-1, glucagon and GIP receptors were determined by exposing cells expressing human glucagon receptor (hGlucagon R), human GIP receptor (hGIP-R) or human GLP-1 receptor (hGLP-1 R) to the listed compounds at increasing concentrations and measuring the formed cAMP as described in Methods.

[3] = Chemical stability assessment, UPLC-UV purity loss in buffer system A; assay type: physicochemical; settings: 1 mg/ml, 25 mM acetate buffer pH 4.5 with m-cresol
Description: Prior to the chemical stability measurement of a peptide batch, its purity was determined through UPLC/MS. For stability testing the target concentration was 1 mg pure compound/ml. Therefore solutions from solid samples were prepared in a buffer system with a concentration of 1 mg/mL compound based on the previously determined % purity:
Chemical stability buffer system A) 25 mM acetate buffer pH 4.5, 3 mg/mL L-Methionine, 2.7 mg/mL m-cresol, 18 mg/mL Glycerol 85% Chemical stability buffer system B) 25 mM phosphate buffer pH 6.0, 3 mg/mL L-Methionine, 2.7 mg/mL m-cresol, 18 mg/mL Glycerol 85%
Peptide solutions were filtered through […] pore size and filled into aliquots under aseptic conditions. At starting point, UPLC-UV was performed by injection of 2 μl of the undiluted sample.
For chemical stability testing, aliquots were stored for 28 days at 5 and 40° C. After this time course the samples were centrifuged for 15 min at 2500 RCF. Then 2 μl of the undiluted supernatant were analysed with UPLC-UV.
The chemical stability was rated through the relative loss of purity calculated by the equation: [(purity at starting point)−(purity after 28 days at X° C.)]/(purity at starting point)]*100%
The purity is calculated as
[(peak area peptide)/(total peak area)]*100%
Peptide samples were prepared in Chemical stability buffer system A and the stability was assessed as described in Methods.

Lag time before increase [1] [h]	pEC50 [2]	Chemical stability [relative purity loss 28 days 40° C.] (%) at pH 4.5 [3] [%]	SMILES
>45	11.72		CCCCCCCCCCCCCCCC(=O)N[C@@H](CCC(=O)NCCCC[C@H](NC(=O)[C@H](CC(C)C)NC(=O)[C@H](CCCCN)NC(=O)[C@H](CO)NC(=O)[C@H](CC(C)C)NC(=O)[C@H](CC(=O)O)NC(=O)[C@H](CO)NC(=O)[C@@H](NC(=O)[C@H](Cc1ccccc1)NC(=O)[C@@H](NC(=O)CNC(=O)[C@H](Cc1c[nH]cn1)NC(=O)C(C)(C)NC(=O)[C@@H](N)Cc1c[nH]cn1)[C@@H](C)O)[C@@H](C)O)C(=O)N[C@@H](CCC(=O)O)C(=O)N[C@@H](CCC(=O)O)C(=O)N[C@@H](CCC(N)=O)C(=O)N[C@@H](CCCNC(=N)N)C(=O)N[C@@H](CCC(N)=O)C(=O)N[C@@H](CCCCN)C(=O)N[C@@H](CCC(=O)O)C(=O)N[C@@H](Cc1ccccc1)C(=O)N[C@H](C(=O)N[C@@H](CCC(=O)O)C(=O)N[C@@H](Cc1c[nH]c2ccccc12)C(=O)N[C@@H](CC(C)C)C(=O)N[C@@H](CCCCN)C(=O)N[C@@H](C)C(=O)NCC(=O)NCC(=O)N1CCC[C@H]1C(=O)N1CCC[C@H]1C(=O)N[C@@H](CO)C(=O)NC(C)(C)C(=O)N[C@@H](CCCCN)C(=O)N1CCC[C@H]1C(=O)N1CCC[C@H]1C(=O)N1CCC[C@H]1C(=O)N[C@@H](CCCCN)C(N)=O)[C@@H](C)CC)C(=O)O [SEQ ID NO: 20, H-Aib-H-G-T-F-T-S-D-L-S-K-L-K[gGlu-Palm]-E-E-Q-R-Q-K-E-F-I-E-W-L-K-A-G-G-P-P-S-Aib-K-P-P-P-K-NH2]
>45	11.96	9.5	CCCCCCCCCCCCCCCC(=O)N[C@H](CCC(=O)NCCOCCOCC(=O)N[C@@H](CCC(=O)NCCCC[C@H](NC(=O)[C@H](CC(C)C)NC(=O)[C@H](CCCCN)NC(=O)[C@H](CO)NC(=O)[C@H](CC(C)C)NC(=O)[C@H](CC(=O)O)NC(=O)[C@H](CO)NC(=O)[C@@H](NC(=O)[C@H](Cc1ccccc1)NC(=O)[C@@H](NC(=O)CNC(=O)[C@H](Cc1c[nH]cn1)NC(=O)C(C)(C)NC(=O)[C@@H](N)Cc1c[nH]cn1)[C@@H](C)O)[C@@H](C)O)C(=O)N[C@@H](CCC(=O)O)C(=O)N[C@@H](CCC(=O)O)C(=O)N[C@@H](CCC(N)=O)C(=O)N[C@@H](CCCNC(=N)N)C(=O)N[C@@H](CCC(N)=O)C(=O)N[C@@H](CCCCN)C(=O)N[C@@H](CCC(=O)O)C(=O)N[C@@H](Cc1ccccc1)C(=O)N[C@H](C(=O)N[C@@H](CCC(=O)O)C(=O)N[C@@H](Cc1c[nH]c2ccccc12)C(=O)N[C@@H](CC(C)C)C(=O)N[C@@H](CCCCN)C(=O)N[C@@H](C)C(=O)NCC(=O)NCC(=O)N[C@@H](Cc1c[nH]cn1)C(=O)N1CCC[C@H]1C(=O)N[C@@H](CO)C(=O)NC(C)(C)C(=O)N[C@@H](CCCCN)C(=O)N1CCC[C@H]1C(=O)N1CCC[C@H]1C(=O)N1CCC[C@H]1C(=O)N[C@@H](CCCCN)C(N)=O)[C@@H](C)CC)C(=O)O)CC(=O)O [SEQ ID NO: 22, H-Aib-H-G-T-F-T-S-D-L-S-K-L-K[gGlu-AEEA-gAAA-Palm]-E-E-Q-R-Q-K-E-F-I-E-W-L-K-A-G-G-H-P-S-Aib-K-P-P-P-K-NH2] (H-H[Aib]HGTFTSDLSKLK([γGlu-AEEA-Adipoyl(4R-palmitoylamino)])EEQRQKEFIEWLKAGGHPS[Aib]KPPPK-NH2)
